Data taken from US9499550B2 (BRISTOL-MYERS SQUIBB COMPANY, priority 2012, dated 2016).
pEC50: −log10 of the molar value.

What was measured:
[1] = tested on: HCV genotype 1a (H77 strain) replicon in HUH-7 cells; assay: HCV replicon luciferase reporter assay, genotype 1a; assay type: cell-based; conditions: Hepatitis C virus, Huh-7, 72 h, HCV genotype 1a replicon luciferase, 3 days incubation, read-out: LE_1a (EC50, range)
How it was run: (§1)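 Replicon inhibition for both genotypes was measured as Renilla luciferase signal (EnduRen, 7.5 μM final, 2 h) after 3-day, 37° C exposure of replicon-bearing HUH-7 cells in 4% FCS DMEM, 0.5% DMSO. The 1b construct carries S1179I; the 1a H77 construct carries P1496L and S2204I. Twenty-point, 3-fold dilutions were fitted four-parametrically for EC50, and CC50 was taken from multiplexed Cell Titer-Blue.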

[2] = tested on: HCV genotype 1b (Con1) replicon in HUH-7 cells; assay: HCV replicon luciferase reporter assay, genotype 1b; assay type: cell-based; conditions: Hepatitis C virus, Huh-7, 72 h, HCV genotype 1b replicon luciferase, 3 days incubation, read-out: LE_1b (EC50, range)
How it was run: as §1

| Structure (SMILES) | pEC50 [1] | pEC50 [2] |
| --- | --- | --- |
| [2H]C([2H])([2H])C(OC(=O)N[C@@H]1C(=O)N2C[C@H](Oc3nnc(OCC)c4ccccc34)C[C@H]2C(=O)N[C@]2(C(=O)NS(=O)(=O)C3(C)CC3)C[C@H]2/C=C\CC[C@H](C)C[C@H]1C)(C([2H])([2H])[2H])C(F)(F)F [Compound 5032] | 6.99 to 8.32 | 6.99 to 8.32 |
| [2H]C([2H])([2H])C(OC(=O)N[C@@H]1C(=O)N2C[C@H](Oc3nnc(OCC)c4ccccc34)C[C@H]2C(=O)N[C@]2(C(=O)NS(=O)(=O)C3(C)CC3)C[C@H]2/C=C\CC[C@@H](C)C[C@H]1C)(C([2H])([2H])[2H])C(F)(F)F [Compound 5033] | > 8.26 | > 8.26 |
| CCOc1nnc(O[C@@H]2C[C@H]3C(=O)N[C@]4(C(=O)NS(=O)(=O)C5CC5)C[C@H]4/C=C\CC[C@H](C)C[C@@H](C)[C@H](NC(=O)OC(C)(C)C)C(=O)N3C2)c2ccccc12 [Compound 5034, tert-butyl ((2R,6S,7R,9S,13aS,14aR,16aS,Z)-14a-((cyclopropylsulfonyl)carbamoyl)-2-((4-ethoxyphthalazin-1-yl)oxy)-7,9-dimethyl-5,16-dioxo-1,2,3,5,6,7,8,9,10,11,13a,14,14a,15,16,16a-hexadecahydrocyclopropa[e]pyrrolo[1,2-a][1,4]diazacyclopentadecin-6-yl)carbamate] | 6.99 to 8.32 | 6.99 to 8.32 |
| CCOc1nnc(O[C@@H]2C[C@H]3C(=O)N[C@]4(C(=O)NS(=O)(=O)C5CC5)C[C@H]4/C=C\CC[C@@H](C)C[C@@H](C)[C@H](NC(=O)OC(C)(C)C)C(=O)N3C2)c2ccccc12 [Compound 5035, tert-butyl ((2R,6S,7R,9R,13aS,14aR,16aS,Z)-14a-((cyclopropylsulfonyl)carbamoyl)-2-((4-ethoxyphthalazin-1-yl)oxy)-7,9-dimethyl-5,16-dioxo-1,2,3,5,6,7,8,9,10,11,13a,14,14a,15,16,16a-hexadecahydrocyclopropa[e]pyrrolo[1,2-a][1,4]diazacyclopentadecin-6-yl)carbamate] | > 8.26 | > 8.26 |
| CCOc1nnc(O[C@@H]2C[C@H]3C(=O)N[C@]4(C(=O)NS(=O)(=O)C5CC5)C[C@H]4/C=C\CC[C@H](C)C[C@@H](C)[C@H](NC(=O)OC(C)(C)C(F)(F)F)C(=O)N3C2)c2ccccc12 [Compound 5036, 1,1,1-trifluoro-2-methylpropan-2-yl((2R,6S,7R,9S,13aS,14aR,16aS,Z)-14a-((cyclopropylsulfonyl)carbamoyl)-2-((4-ethoxyphthalazin-1-yl)oxy)-7,9-dimethyl-5,16-dioxo-1,2,3,5,6,7,8,9,10,11,13a,14,14a,15,16,16a-hexadecahydrocyclopropa[e]pyrrolo[1,2-a][1,4]diazacyclopentadecin-6-yl)carbamate] | 6.99 to 8.32 | 6.99 to 8.32 |
| CCOc1nnc(O[C@@H]2C[C@H]3C(=O)N[C@]4(C(=O)NS(=O)(=O)C5CC5)C[C@H]4/C=C\CC[C@@H](C)C[C@@H](C)[C@H](NC(=O)OC(C)(C)C(F)(F)F)C(=O)N3C2)c2ccccc12 [Compound 5037, 1,1,1-trifluoro-2-methylpropan-2-yl((2R,6S,7R,9R,13aS,14aR,16aS,Z)-14a-((cyclopropylsulfonyl)carbamoyl)-2-((4-ethoxyphthalazin-1-yl)oxy)-7,9-dimethyl-5,16-dioxo-1,2,3,5,6,7,8,9,10,11,13a,14,14a,15,16,16a-hexadecahydrocyclopropa[e]pyrrolo[1,2-a][1,4]diazacyclopentadecin-6-yl)carbamate] | > 8.26 | > 8.26 |
| [2H]C([2H])([2H])C(OC(=O)N[C@@H]1C(=O)N2C[C@H](Oc3nnc(OCC)c4ccccc34)C[C@H]2C(=O)N[C@]2(C(=O)NS(=O)(=O)C3CC3)C[C@H]2/C=C\CC[C@H](C)C[C@H]1C)(C([2H])([2H])[2H])C(F)(F)F [Compound 5038] | 6.99 to 8.32 | 6.99 to 8.32 |
| [2H]C([2H])([2H])C(OC(=O)N[C@@H]1C(=O)N2C[C@H](Oc3nnc(OCC)c4ccccc34)C[C@H]2C(=O)N[C@]2(C(=O)NS(=O)(=O)C3CC3)C[C@H]2/C=C\CC[C@@H](C)C[C@H]1C)(C([2H])([2H])[2H])C(F)(F)F [Compound 5039] | > 8.26 | > 8.26 |
| CCOc1nnc(O[C@@H]2C[C@H]3C(=O)N[C@]4(C(=O)NS(=O)(=O)C5CC5)C[C@H]4/C=C\CC[C@H](C)C[C@@H](C)[C@H](NC(=O)NC(C)(C)C)C(=O)N3C2)c2ccccc12 [Compound 5040, (2R,6S,7R,9S,13aS,14aR,16aS,Z)-6-(3-(tert-butyl)ureido)-N-(cyclopropylsulfonyl)-2-((4-ethoxyphthalazin-1-yl)oxy)-7,9-dimethyl-5,16-dioxo-1,2,3,5,6,7,8,9,10,11,13a,14,14a,15,16,16a-hexadecahydrocyclopropa[e]pyrrolo[1,2-a][1,4]diazacyclopentadecine-14a-carboxamide] | < 7.06 | < 7.06 |
| CCOc1nnc(O[C@@H]2C[C@H]3C(=O)N[C@]4(C(=O)NS(=O)(=O)C5CC5)C[C@H]4/C=C\CC[C@@H](C)C[C@@H](C)[C@H](NC(=O)NC(C)(C)C)C(=O)N3C2)c2ccccc12 [Compound 5041, (2R,6S,7R,9R,13aS,14aR,16aS,Z)-6-(3-(tert-butyl)ureido)-N-(cyclopropylsulfonyl)-2-((4-ethoxyphthalazin-1-yl)oxy)-7,9-dimethyl-5,16-dioxo-1,2,3,5,6,7,8,9,10,11,13a,14,14a,15,16,16a-hexadecahydrocyclopropa[e]pyrrolo[1,2-a][1,4]diazacyclopentadecine-14a-carboxamide] | > 8.26 | 6.99 to 8.32 |
| CCOc1nnc(O[C@@H]2C[C@H]3C(=O)N[C@]4(C(=O)NS(=O)(=O)C5CC5)C[C@H]4/C=C\CC[C@H](C)C[C@@H](CC)[C@H](NC(=O)OC(C)(C)C)C(=O)N3C2)c2ccccc12 [Compound 5042, tert-butyl ((2R,6S,7R,9S,13aS,14aR,16aS,Z)-14a-((cyclopropylsulfonyl)carbamoyl)-2-((4-ethoxyphthalazin-1-yl)oxy)-7-ethyl-9-methyl-5,16-dioxo-1,2,3,5,6,7,8,9,10,11,13a,14,14a,15,16,16a-hexadecahydrocyclopropa[e]pyrrolo[1,2-a][1,4]diazacyclopentadecin-6-yl)carbamate] | 6.99 to 8.32 | 6.99 to 8.32 |
| CCOc1nnc(O[C@@H]2C[C@H]3C(=O)N[C@]4(C(=O)NS(=O)(=O)C5CC5)C[C@H]4/C=C\CC[C@@H](C)C[C@@H](CC)[C@H](NC(=O)OC(C)(C)C)C(=O)N3C2)c2ccccc12 [Compound 5043, tert-butyl ((2R,6S,7R,9R,13aS,14aR,16aS,Z)-14a-((cyclopropylsulfonyl)carbamoyl)-2-((4-ethoxyphthalazin-1-yl)oxy)-7-ethyl-9-methyl-5,16-dioxo-1,2,3,5,6,7,8,9,10,11,13a,14,14a,15,16,16a-hexadecahydrocyclopropa[e]pyrrolo[1,2-a][1,4]diazacyclopentadecin-6-yl)carbamate] | > 8.26 | > 8.26 |
| CCOc1nnc(O[C@@H]2C[C@H]3C(=O)N[C@]4(C(=O)NS(=O)(=O)C5CC5)C[C@H]4/C=C\CC[C@H](C)C[C@@H](CC)[C@H](NC(=O)OC(C)(C)C(F)(F)F)C(=O)N3C2)c2ccccc12 [Compound 5044, 1,1,1-trifluoro-2-methylpropan-2-yl((2R,6S,7R,9S,13aS,14aR,16aS,Z)-14a-((cyclopropylsulfonyl)carbamoyl)-2-((4-ethoxyphthalazin-1-yl)oxy)-7-ethyl-9-methyl-5,16-dioxo-1,2,3,5,6,7,8,9,10,11,13a,14,14a,15,16,16a-hexadecahydrocyclopropa[e]pyrrolo[1,2-a][1,4]diazacyclopentadecin-6-yl)carbamate] | 6.99 to 8.32 | 6.99 to 8.32 |
| CCOc1nnc(O[C@@H]2C[C@H]3C(=O)N[C@]4(C(=O)NS(=O)(=O)C5CC5)C[C@H]4/C=C\CC[C@@H](C)C[C@@H](CC)[C@H](NC(=O)OC(C)(C)C(F)(F)F)C(=O)N3C2)c2ccccc12 [Compound 5045, 1,1,1-trifluoro-2-methylpropan-2-yl((2R,6S,7R,9R,13aS,14aR,16aS,Z)-14a-((cyclopropylsulfonyl)carbamoyl)-2-((4-ethoxyphthalazin-1-yl)oxy)-7-ethyl-9-methyl-5,16-dioxo-1,2,3,5,6,7,8,9,10,11,13a,14,14a,15,16,16a-hexadecahydrocyclopropa[e]pyrrolo[1,2-a][1,4]diazacyclopentadecin-6-yl)carbamate] | > 8.26 | > 8.26 |
| CCOc1nnc(O[C@@H]2C[C@H]3C(=O)N[C@]4(C(=O)NS(=O)(=O)C5(C)CC5)C[C@H]4/C=C\CC[C@H](C)C[C@@H](CC)[C@H](NC(=O)OC(C)(C)C)C(=O)N3C2)c2ccccc12 [Compound 5046, tert-butyl ((2R,6S,7R,9S,13aS,14aR,16aS,Z)-2-((4-ethoxyphthalazin-1-yl)oxy)-7-ethyl-9-methyl-14a-(((1-methylcyclopropyl)sulfonyl)carbamoyl)-5,16-dioxo-1,2,3,5,6,7,8,9,10,11,13a,14,14a,15,16,16a-hexadecahydrocyclopropa[e]pyrrolo[1,2-a][1,4]diazacyclopentadecin-6-yl)carbamate] | 6.99 to 8.32 | > 8.26 |
| CCOc1nnc(O[C@@H]2C[C@H]3C(=O)N[C@]4(C(=O)NS(=O)(=O)C5(C)CC5)C[C@H]4/C=C\CC[C@@H](C)C[C@@H](CC)[C@H](NC(=O)OC(C)(C)C)C(=O)N3C2)c2ccccc12 [Compound 5047, tert-butyl ((2R,6S,7R,9R,13aS,14aR,16aS,Z)-2-((4-ethoxyphthalazin-1-yl)oxy)-7-ethyl-9-methyl-14a-(((1-methylcyclopropyl)sulfonyl)carbamoyl)-5,16-dioxo-1,2,3,5,6,7,8,9,10,11,13a,14,14a,15,16,16a-hexadecahydrocyclopropa[e]pyrrolo[1,2-a][1,4]diazacyclopentadecin-6-yl)carbamate] | > 8.26 | > 8.26 |
